Laboratory results published in US20190117634A1, “Treatment of Vulvodynia” (Gruenenthal GmbH, priority 2017, published 2019).

Test: in vitro permeation/penetration in porcine vaginal tissue (Franz diffusion cell)
Type: in vitro ADME
Description: The permeation/penetration of the formulation according to Example 1 in porcine vaginal tissue was assessed by in vitro experiments.
The in vitro experiments involved the use of a Franz diffusion cell designed to mimic the physiological and anatomical conditions of porcine vaginal tissue in situ. Porcine vaginal tissue skin was positioned between the two halves of a Franz diffusion cell with the vaginal epithelium facing the donor compartment allowing for drug product application. The other side of the porcine vaginal tissue skin faced a receiver fluid comprising 2% w/v Tween 80 in 20% v/v PEG 400 in water.
Prior to dosing of the formulation on the tissue, the integrity of the tissue was assessed as follows: • (i) Porcine vaginal tissue was mounted between the donor and receiver compartments and the cells were sealed together using Parafilm®. • (ii) The donor and receiver chambers were filled with PBS solution and a small magnetic follower was placed in the receiver compartment. • (iii) Cells were equilibrated in a water bath, ensuring a membrane temperature of 32° C. for 30 min. • (iv) The electrodes of the ISO-TECH LCR821 Meter were placed in the receiver chamber through the sampling arm and the donor chamber and the LCR was set at 100 Hz and set to ‘R’ for resistance. • (v) The resistance of the tissue in each Franz cell was measured using a ISO-TECH LCR821 Meter (SOP 3174). Cells with a resistance below the acceptable limits were discarded and remounted.
Following the tissue integrity testing, the PBS solutions were removed from each compartment and the receiver compartments of cells passing the resistance criteria were filled with receiver fluid. Each cell was then equilibrated to ensure a surface temperature of 32° C. (external skin surface temperature) for at least 30 min prior to dosing. An additional Franz cell was also mounted but not dosed (to act as a blank) to assess interference with sample quantification.
A positive displacement pipette was used to apply 6-8 mg of the formulation of table 1 to the tissue surface. Prior to application the weight of each test formulation was verified by weighing the amount dispensed by the positive displacement pipette into an empty vial (n=6).
Receiver fluid (200 μL) was removed at the following time points t=0, 1, 2, 4, 6 and 24 h and transferred to a HPLC vial for analysis. Fresh pre-warmed (37° C.) receiver fluid was used to replace the receiver fluid removed at each time point. Following the 24 h time point, remaining receiver fluid was removed from the Franz cells and the drug was recovered. […]

[1] = formulation of Example 1, after 24 h, Franz cell

CN(C)[C@]1(c2cccc(F)c2)CC[C@]2(CC1)c1[nH]c3ccccc3c1CCN2C(=O)/C=C/c1ccccc1 [pharmacologically active compound, cis-(E)-4-(3-fluorophenyl)-2′,3′,4′,9′-tetrahydro-N,N-dimethyl-2′-(1-oxo-3-phenyl-2-propenyl)-spiro[cyclohexane-1,1′[1H]-pyrido[3,4-b]indol]-4-amine]
Mean recovery of the pharmacologically active compound from the epithelium of porcine vaginal tissue (formulation of Example 1 (2.60 wt.-% compound), 6-8 mg applied, after 24 h, Franz cell, 32° C.): 9.72 μg | Mean recovery of the pharmacologically active compound from the epithelium of porcine vaginal tissue [1]: 810.21 μg/mL | Total concentration presented to vaginal epithelium [1]: 1596.04 µM | permeation into the epithelium of porcine vaginal tissue (in words) (formulation of Example 1, in vitro, 24 h): permeates into the epithelium of porcine vaginal tissue
